Data taken from patent US5496841A, “Anti-neoplastic, anti-viral and ribonucleotide reductase activity affecting pharmaceutical compositions and method of treatment” (University of Florida Research Foundation, Inc., priority 1995, dated 1996).
Where two headings read alike, the source gives them in different places.

Columns and labels:
[1] = system: vesicular stomatitis virus; experiment: microbe, parasite or virus in culture; assay type: cell-based
[2] = system: herpes simplex I, KOS strain; experiment: Inhibition of herpes simplex virus replication in CV-1 cells (plaque assay); assay type: cell-based; conditions: for anti-herpetic activity (in words): herpes simplex I; for % Control, Herpes replication: Compound II 100 μM
[3] = system: Murine L1210 leukemia cells; experiment: L1210 leukemia cell growth inhibition; assay type: cell-based; conditions: for anti-leukemic activity (in words): L1210; for IC50: L1210, 48 hr, read-out: Antileukemic Activity (IC50, 48 hr); for % Control, L1210 growth: Compound II 10 μM
[4] = Iron formation (binding) constant; assay type: physicochemical; conditions: estimated iron binding constant
Excerpt: When the compounds were ranked according to their estimated iron binding constants (Table I), the order generally paralleled both the anti-leukemicand anti-herpetic activities of the compounds. […] Furthermore, the effects of the ligands could be prevented by addition of ferric chloride, supporting the idea that iron chelation is the source of activity.

Plasmodium falciparum = experiment: In vitro growth of Plasmodium falciparum (candle jar technique); assay type: cell-based
Description: The anti-malarial activity of the compounds listed in Table IV were determined using the method of Scheibel et al, Mol. Pharmacol., 20, pp. 218-223 (1981).
In this study, Plasmodium falciparum were grown in petri dishes using the conventional candle jar technique (Jensen, J. B., and W. Trager. Plasmodium falciparum in culture; use of outdated erythrocytes and description of the candle jar method. J. Parasitol. Vol. 63, pp. 883-886 (1977)). Parasites were grown for 24 hours in 1.5 ml petri dishes in a candle jar before exposure to the chelators of interest. The Plasmodium falciparum were next exposed to various concentrations of the ligands, and ED50 values determined after two and three days of exposure.

[5] = Partition between n-octanol and phosphate buffered saline; assay type: physicochemical; conditions: PBS pH 7.40 / n-octanol; for logD at 12 h: pH 7.4, 27° C., read-out: Conc. n-Octanol / Conc. PBS (partition coefficient) (converted)
Description: The partition equilibrium values for octanol and phosphate buffered saline were determined for certain of the test compounds. The compounds were added in nitrogen saturated methanol at the same concentration to three acid washed test tubes and the alcohol evaporated leaving a thin film of compounds coating the interior of the tube. Next, 5 ml each of degassed phosphate buffered saline (pH 7.4) and n-octanol were added. The tubes were sealed with Teflon caps under argon and rotated at 6 rpm at 27° C. for 12 hours. […] Absorbance values were compared to Beer's Lambert's plots generated for each compound.

[6] = prior art statement; cited from earlier work
L1210 cells = conditions: Porter et al, read-out: 50% growth-inhibitory dose; cited from earlier work
CV-1 monkey kidney cells = experiment: Toxicity to resting monkey kidney cell monolayers; assay type: cell-based; conditions: 100 μM, 24 hours
[7] = system: herpes virus (same herpes strain); conditions: vero monkey kidney cell line, DeClercq, read-out: IC50 anti-herpetic; cited from earlier work
[8] = Vesicular stomatitis virus, CV-1, read-out: Antiviral Activity Vesicular stomatitis (IC50)
[9] = CV-1, read-out: Antiviral Activity Herpes simplex I (IC50)
[10] = 48 h, exposure for 2 days, read-out: Concentration required to reduce in vitro growth of P. falciparum 50% (ED50), Day 2
[11] = 72 h, exposure for 3 days, read-out: Concentration required to reduce in vitro growth of P. falciparum 50% (ED50), Day 3
[12] = CV-1 cells, read-out: Antiviral Activity Herpes simplex I (IC50)

NCCCCN(CCCN)Cc1ccccc1
IC50 [1, 8]: 1000 µM
IC50 [2, 9]: 1000 µM
anti-herpetic activity (in words) [2]: virtually inactive
anti-leukemic activity (in words) [3]: virtually inactive
IC50 ([3]; Mus musculus): 4000 µM
Formation Constant [4]: 0 moles/1

C[C@H]1OC(c2ccccc2O)=N[C@@H]1C(=O)N(CCCCNC(=O)c1cccc(O)c1O)CCCNC(=O)c1cccc(O)c1O (relative stereo) [Parabactin, N-[3-(2,3-dihydroxybenzamido)propyl]-N-[4-(2,3-dihydroxybenzamino)-butyryl]-2-(2-hydroxyphenyl)trans-5-methyl-oxazoline-4-carboxamide]
IC50 (Plasmodium falciparum; [10]): 2.6 µM
IC50 (Plasmodium falciparum; [11]): 2.3 µM
Gt ° (G° transfer) [5]: -2.06 K cal M-I
logD at 12 h [5]: 1.51
IC50 [2, 12]: 0.4 µM
IC50 ([3]; Mus musculus): 2 µM
times more active as an antineoplastic than DHBA ([3]; ratio vs DHBA): 10^3
iron formation constant of 1:1 metal complex [6]: ~10^48 moles/l

C[C@H]1OC(c2cccc(O)c2O)=N[C@@H]1C(=O)NCCCN(CCCNC(=O)c1cccc(O)c1O)C(=O)[C@H]1N=C(c2cccc(O)c2O)O[C@@H]1C (relative stereo) [Vibrobactin, N-[3-(2,3-(dihydrozybenzamido)propyl]-1,3-bis(2,3-dihydroxyphenyl)-trans-5-methyl-2-oxazoline-4-carbonamido]propane]
IC50 (Plasmodium falciparum; [10]): 4.5 µM
IC50 (Plasmodium falciparum; [11]): 1.8 µM
IC50 ([3]; Mus musculus): 2 µM

O=C(NCCCCNCCCNC(=O)c1cccc(O)c1O)c1cccc(O)c1O [Compound II, N^1,N^8-bis(2,3-dihydroxybenzoyl)-spermidine]
IC50 [1, 8]: 1000 µM
IC50 (Plasmodium falciparum; [10]): 4.5 µM
IC50 (Plasmodium falciparum; [11]): 3.7 µM
IC50 (L1210 cells): 10 µM
Gt ° (G° transfer) [5]: -0.04 K cal M-I
logD at 12 h [5]: -0.0132
IC50 [2, 12]: 32 µM
% Control, Herpes replication ([2]; FeCl3 0 μM): 0 % Control
% Control, Herpes replication ([2]; FeCl3 9 μM): 20 % Control
% Control, Herpes replication ([2]; FeCl3 19 μM): 53 % Control
% Control, Herpes replication ([2]; FeCl3 38 μM): 138 % Control
anti-herpetic activity on inclusion of exogenous iron in the incubation media ([2]; ferric chloride added, herpes replication assay): fully attenuated
% Control, L1210 growth ([3]; FeCl3 0 μM): 23 % Control
% Control, L1210 growth ([3]; FeCl3 4 μM): 64 % Control
% Control, L1210 growth ([3]; FeCl3 8 μM): 96 % Control
% Control, L1210 growth ([3]; FeCl3 12 μM): 104 % Control
IC50 ([3]; Mus musculus): 7 µM
anti-leukemic activity on inclusion of exogenous iron in the incubation media ([3]; ferric chloride added): fully attenuated
growth of resting cell monolayers after treatment and replacement in drug-free media (CV-1 monkey kidney cells): identical to that of untreated cells

O=C(O)c1cccc(O)c1O [DHBA, 2,3-dihydroxybenzoic acid]
IC50 [1, 8]: 1000 µM
Gt ° (G° transfer) [5]: +1.57 K cal M-I
logD at 12 h [5]: -1.15
IC50 [2, 9]: 1000 µM
anti-herpetic activity (in words) [2]: minimal activity
anti-leukemic activity (in words) [3]: minimal activity
IC50 ([3]; Mus musculus): 2800 µM

Nc1nc(=O)n([C@@H]2O[C@H](CO)[C@@H](O)[C@@H]2F)cc1I [FIAC, 2-fluoro-5-iodo-I-B-D-arabinofuranosylcytosine]
IC50 [7]: 0.6 µM

O=C(NCCCCN(CCCNC(=O)c1cccc(O)c1O)C(=O)CCCNC(=O)c1cccc(O)c1O)c1cccc(O)c1O [GABA, N^1,N^8-bis(2,3-dihydroxybenzoyl)-N^4-(4-[2,3-dihydrozybenzamido]-butyryl) spermidine]
IC50 [1, 8]: 1000 µM
IC50 (Plasmodium falciparum; [10]): 5.1 µM
IC50 (Plasmodium falciparum; [11]): 4.3 µM
IC50 [2, 12]: 18 µM
IC50 ([3]; Mus musculus): 2 µM

C[C@@H](O)[C@H](N)C(=O)N(CCCCNC(=O)c1cccc(O)c1O)CCCNC(=O)c1cccc(O)c1O [N^1,N^8-bis(2,3-dihydroxybenzoyl)-N^4-threonyl-spermidine]
IC50 ([1]; estimated by methyl cellulose disk overlay assay, read-out: Antiviral Activity Vesicular stomatitis (IC50)): 1000 µM
IC50 [2, 12]: 55 µM
IC50 [3]: 14 µM

Nc1nc2c(ncn2COCCO)c(=O)[nH]1 [acyclovir]
IC50 [7]: 40 µM
